Experimental data from the NIST ThermoML archive (doi:10.1007/s10765-013-1492-1).
Where “and” joins values, the source holds several entries; their conditions need not be identical. Equal entries are not always repeated. Numbers after ± are expanded uncertainties.

What was measured:
[1] = xn = mol fraction of the nth substance listed; settings: 101 kPa, Liquid
[2] = 101 kPa, Liquid

O=Cc1ccccc1 [benzaldehyde] + O=[N+]([O-])c1ccccc1
[1]
Settings	mass density, 303.15 K [kg/m3]	mass density, 308.15 K [kg/m3]	mass density, 313.15 K [kg/m3]	speed of sound, 303.15 K [m/s]	speed of sound, 308.15 K [m/s]	speed of sound, 313.15 K [m/s]	viscosity, 303.15 K [mPa·s]	viscosity, 308.15 K [mPa·s]	viscosity, 313.15 K [mPa·s]
x1 = 0.1018	1170.8 ± 5.3	1170.6 ± 5.4	1166.6 ± 5.5	1409.5 ± 15	1366.2 ± 15	1332.4 ± 15	1.556 ± 0.072	1.546 ± 0.072	1.524 ± 0.071
x1 = 0.2032	1160.2 ± 5.3	1159.9 ± 5.4	1150.6 ± 5.4	1412 ± 15	1372 ± 15	1340 ± 15	1.534 ± 0.072	1.504 ± 0.07	1.472 ± 0.069
x1 = 0.3043	1143 ± 5.2	1142.6 ± 5.3	1142.4 ± 5.4	1414.6 ± 15	1378 ± 15	1348 ± 15	1.495 ± 0.07	1.456 ± 0.068	1.45 ± 0.068
x1 = 0.4049	1130.6 ± 5.2	1129.8 ± 5.3	1121.9 ± 5.3	1417.5 ± 16	1384 ± 15	1356.2 ± 15	1.455 ± 0.068	1.429 ± 0.067	1.402 ± 0.066
x1 = 0.5051	1117.6 ± 5.1	1117 ± 5.2	1110.9 ± 5.3	1420.6 ± 16	1390.6 ± 15	1364.8 ± 15	1.427 ± 0.067	1.411 ± 0.066	1.383 ± 0.065
x1 = 0.6049	1102.6 ± 5	1101.8 ± 5.1	1101.1 ± 5.2	1424.5 ± 16	1397.8 ± 15	1374 ± 15	1.405 ± 0.066	1.389 ± 0.065	1.371 ± 0.065
x1 = 0.7042	1083.9 ± 5	1082.7 ± 5.1	1080.7 ± 5.2	1428.3 ± 16	1405 ± 15	1383 ± 15	1.359 ± 0.064	1.354 ± 0.064	1.343 ± 0.063
x1 = 0.8032	1065.2 ± 4.9	1065 ± 5	1064.5 ± 5.1	1432.5 ± 16	1412.5 ± 15	1392.3 ± 15	1.333 ± 0.063	1.316 ± 0.062	1.307 ± 0.062
x1 = 0.9018	1050.9 ± 4.8	1048.8 ± 4.9	1043.8 ± 5	1437 ± 16	1420 ± 15	1401.7 ± 15	1.295 ± 0.061	1.282 ± 0.061	1.267 ± 0.06
x1 = 1	1035.7 ± 4.8	1031.3 ± 4.9	1028 ± 4.9	1452 ± 16	1428.8 ± 16	1413 ± 15	1.32 ± 0.062	1.249 ± 0.059	1.241 ± 0.059

O=[N+]([O-])c1ccccc1 [nitrobenzene]
[2]
Settings	mass density [kg/m3]	speed of sound [m/s]	viscosity [mPa·s]
303.15 K	1189.6 ± 5.4	1407 ± 15	1.618 ± 0.075
308.15 K	1189.4 ± 5.5	1361 ± 15	1.618 ± 0.075
313.15 K	1187.2 ± 5.6	1326 ± 15	1.61 ± 0.075

O=Cc1ccccc1 [benzaldehyde]
[2]
Settings	mass density	speed of sound	viscosity
303.15 K	1031.7 ± 4.8 kg/m3 and 1035.7 ± 4.8 kg/m3	1452 ± 16 m/s	1.32 ± 0.082 mPa·s
308.15 K	1031.3 ± 4.9 kg/m3	1428 ± 16 m/s and 1428.8 ± 16 m/s	1.249 ± 0.078 mPa·s and 1.249 ± 0.059 mPa·s
313.15 K	1028 ± 4.9 kg/m3	1413 ± 15 m/s	1.242 ± 0.078 mPa·s and 1.241 ± 0.059 mPa·s

O=Cc1ccccc1 [benzaldehyde] + Clc1ccccc1
[1]
Settings	mass density, 303.15 K [kg/m3]	mass density, 308.15 K [kg/m3]	mass density, 313.15 K [kg/m3]	speed of sound, 303.15 K [m/s]	speed of sound, 308.15 K [m/s]	speed of sound, 313.15 K [m/s]	viscosity, 303.15 K [mPa·s]	viscosity, 308.15 K [mPa·s]	viscosity, 313.15 K [mPa·s]
x1 = 0.1006	1084.3 ± 5	1082 ± 5.1	1077.9 ± 5.1	1265 ± 14	1241 ± 14	1235 ± 14	0.7984 ± 0.053	0.7805 ± 0.052	0.7641 ± 0.051
x1 = 0.2011	1081.4 ± 5	1079.1 ± 5	1075 ± 5.1	1282 ± 14	1258 ± 14	1249 ± 14	0.8332 ± 0.055	0.8123 ± 0.054	0.7949 ± 0.053
x1 = 0.3015	1077.2 ± 4.9	1075 ± 5	1070.2 ± 5.1	1299 ± 15	1277 ± 14	1267 ± 14	0.8814 ± 0.058	0.8532 ± 0.056	0.8407 ± 0.056
x1 = 0.4017	1071.9 ± 4.9	1070.3 ± 5	1065.2 ± 5.1	1318 ± 15	1296 ± 15	1286 ± 14	0.9297 ± 0.06	0.905 ± 0.059	0.8891 ± 0.058
x1 = 0.5017	1066.5 ± 4.9	1065.2 ± 5	1059.9 ± 5.1	1337 ± 15	1316 ± 15	1305 ± 15	0.9803 ± 0.063	0.9559 ± 0.062	0.9425 ± 0.061
x1 = 0.6017	1060.9 ± 4.9	1059.8 ± 5	1054.6 ± 5.1	1356 ± 15	1337 ± 15	1325 ± 15	1.029 ± 0.066	1.009 ± 0.065	0.9925 ± 0.064
x1 = 0.7015	1055 ± 4.8	1053.8 ± 4.9	1049.1 ± 5	1376 ± 15	1358 ± 15	1345 ± 15	1.082 ± 0.069	1.061 ± 0.068	1.045 ± 0.067
x1 = 0.8011	1048.5 ± 4.8	1047.5 ± 4.9	1043.3 ± 5	1397 ± 15	1380 ± 15	1366 ± 15	1.134 ± 0.072	1.118 ± 0.071	1.099 ± 0.07
x1 = 0.9006	1041.6 ± 4.8	1040.8 ± 4.9	1036.9 ± 5	1418 ± 15	1403 ± 15	1387 ± 15	1.196 ± 0.076	1.184 ± 0.075	1.163 ± 0.074
x1 = 1	1031.7 ± 4.8	1031.3 ± 4.9	1028 ± 4.9	1452 ± 16	1428 ± 16	1413 ± 15	1.32 ± 0.082	1.249 ± 0.078	1.242 ± 0.078

O=[N+]([O-])c1ccccc1 [nitrobenzene] + O=Cc1ccccc1
[1], x2 = 0
Settings	mass density [kg/m3]	speed of sound [m/s]	viscosity [mPa·s]
303.15 K	1189.6 ± 5.4	1407 ± 15	1.618 ± 0.075
308.15 K	1189.4 ± 5.5	1361 ± 15	1.618 ± 0.075
313.15 K	1187.2 ± 5.6	1326 ± 15	1.61 ± 0.075

Clc1ccccc1 [chlorobenzene] + O=Cc1ccccc1
[1], x2 = 0
Settings	mass density [kg/m3]	speed of sound [m/s]	viscosity [mPa·s]
303.15 K	1086.6 ± 5	1249 ± 14	0.7147 ± 0.048
308.15 K	1085.1 ± 5.1	1224 ± 14	0.7469 ± 0.05
313.15 K	1081.1 ± 5.2	1220 ± 14	0.7383 ± 0.05

Clc1ccccc1 [chlorobenzene]
[2]
Settings	mass density [kg/m3]	speed of sound [m/s]	viscosity [mPa·s]
303.15 K	1086.6 ± 5	1249 ± 14	0.7147 ± 0.048
308.15 K	1085.1 ± 5.1	1224 ± 14	0.7469 ± 0.05
313.15 K	1081.1 ± 5.2	1220 ± 14	0.7383 ± 0.05
